Assay results reported in patent US9227973B2, “Pyridine CGRP receptor antagonists” (Merck Sharp & Dohme Corp., priority 2012, dated 2016).
pIC50: −log10 of the molar value.

What was measured:
[1] = target: T1, recombinant human CL receptor/RAMP1 (CGRP receptor) (Homo sapiens (Human), UniProt O60894+Q16602); experiment: Recombinant receptor functional assay (Assay B), cAMP HTRF; type: cell-based; settings: Assay B: HEK 293 cells, 2,000 cells/well, human α-CGRP 1.2 nM, cAMP inflection point
Method: RECOMBINANT RECEPTOR: Human CL receptor (Genbank accession number L76380) was subcloned into the expression vector pIREShyg2 (BD Biosciences Clontech) as a 5′NheI and 3′ PmeI fragment. Human RAMP1 (Genbank accession number AJ001014) was subcloned into the expression vector pIRESpuro2 (BD Biosciences Clontech) as a 5′NheI and 3′NotI fragment. HEK 293 cells (human embryonic kidney cells; ATCC #CRL-1573) were cultured in DMEM with 4.5 g/L glucose, 1 mM sodium pyruvate and 2 mM glutamine supplemented with 10% fetal bovine serum (FBS), 100 units/mL penicillin and […] streptomycin, and maintained at 37° C. and 95% humidity. Cells were subcultured by treatment with 0.25% trypsin with 0.1% EDTA in HBSS. Stable cell line generation was accomplished by co-transfecting 10 μg of DNA with 30 μg Lipofectamine 2000 (Invitrogen) in 75 cm^2 flasks. CL receptor and RAMP1 expression constructs were co-transfected in equal amounts. Twenty-four hours after transfection the cells were diluted and selective medium (growth medium+300 μg/mL hygromycin and 1 μg/mL puromycin) was added the following day. A clonal cell line was generated by single cell deposition utilizing a FACS Vantage SE (Becton Dickinson). Growth medium was adjusted to 150 μg/mL hygromycin and 0.5 μg/mL puromycin for cell propagation.
RECOMBINANT RECEPTOR FUNCTIONAL ASSAY (Assay B): Cells were resuspended in DMEM/F12 (Hyclone) supplemented with 1 g/L BSA and 300 μM isobutyl-methylxanthine. Cells were then plated in a 384-well plate (Proxiplate Plus 384; 509052761; Perkin-Elmer) at a density of 2,000 cells/well and incubated with antagonist for 30 min at 37° C. Human α-CGRP was then added to the cells at a final concentration of 1.2 nM and incubated an additional 20 min at 37° C. Following agonist stimulation, the cells were processed for cAMP determination using the two-step procedure according to the manufacturer's recommended protocol (HTRF cAMP dynamic 2 assay kit; 62AM4PEC; Cisbio). Raw data were transformed into concentration of cAMP using a standard curve then dose response curves were plotted and inflection point (IP) values were determined

[2] = target: T1, recombinant human CL receptor/RAMP1 (CGRP receptor); experiment: Recombinant receptor functional assay (Assay C), cAMP HTRF; type: cell-based; settings: Assay C: HEK 293 cells, 3,500 cells/well, human α-CGRP 1 nM, cAMP inflection point
Method: Human RAMP1 (Genbank accession number AJ001014) was subcloned into the expression vector pIRESpuro2 (BD Biosciences Clontech) as a 5′NheI and 3′NotI fragment. […] Cells were subcultured by treatment with 0.25% trypsin with 0.1% EDTA in HBSS. Stable cell line generation was accomplished by co-transfecting 10 μg of DNA with 30 μg Lipofectamine 2000 (Invitrogen) in 75 cm^2 flasks. CL receptor and RAMP1 expression constructs were co-transfected in equal amounts. Twenty-four hours after transfection the cells were diluted and selective medium (growth medium+300 μg/mL hygromycin and 1 μg/mL puromycin) was added the following day. A clonal cell line was generated by single cell deposition utilizing a FACS Vantage SE (Becton Dickinson). Growth medium was adjusted to 150 μg/mL hygromycin and 0.5 μg/mL puromycin for cell propagation.

T1 sequence (Q16602 23-461): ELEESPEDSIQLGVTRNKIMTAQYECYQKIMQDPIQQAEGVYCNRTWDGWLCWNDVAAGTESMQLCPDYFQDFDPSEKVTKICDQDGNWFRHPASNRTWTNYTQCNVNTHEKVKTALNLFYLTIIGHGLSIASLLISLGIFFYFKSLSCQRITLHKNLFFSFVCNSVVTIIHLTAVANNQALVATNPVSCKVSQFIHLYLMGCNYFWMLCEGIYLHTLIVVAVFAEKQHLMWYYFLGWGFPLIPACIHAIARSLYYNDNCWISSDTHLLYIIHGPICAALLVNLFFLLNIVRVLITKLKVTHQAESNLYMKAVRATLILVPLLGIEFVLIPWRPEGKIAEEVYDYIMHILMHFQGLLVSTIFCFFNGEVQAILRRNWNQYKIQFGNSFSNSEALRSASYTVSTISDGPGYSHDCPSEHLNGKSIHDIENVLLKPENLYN
T1 sequence (O60894 27-148): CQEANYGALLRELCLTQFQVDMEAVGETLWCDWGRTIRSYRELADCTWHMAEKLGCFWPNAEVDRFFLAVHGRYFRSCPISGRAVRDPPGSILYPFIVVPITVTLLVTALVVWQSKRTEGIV

Row | SMILES | pIC50 [1] | pIC50 [2]
1 | O=C(NC1CC(c2ccccc2)Cc2cccnc21)c1cnc2c(c1)C[C@@]1(C2)C(=O)Nc2ncccc21 (single isomer, unassigned; isomer a) [5 isomer A] | 7.66 | –
2 | O=C(NC1CC(c2ccccc2)Cc2cccnc21)c1cnc2c(c1)C[C@@]1(C2)C(=O)Nc2ncccc21 (single isomer, unassigned; isomer a) [6 isomer A] | 7.11 | –
3 | O=C(NC1COC(c2ccccc2)Cc2cccnc21)c1cnc2c(c1)C[C@@]1(C2)C(=O)Nc2ncccc21 (single isomer, unassigned; isomer a) [9 isomer A] | – | 5.72
4 | O=C(NC1CC(c2ccccc2)Cc2cccnc21)c1cnc2c(c1)C[C@]1(C2)C(=O)Nc2ncccc21 (single isomer, unassigned; isomer b) [5 isomer B] | 5.34 | –
5 | O=C(NC1CC(c2ccccc2)Cc2cccnc21)c1cnc2c(c1)C[C@]1(C2)C(=O)Nc2ncccc21 (single isomer, unassigned; isomer b) [6 isomer B] | 6.82 | –
6 | O=C(NC1COC(c2ccccc2)Cc2cccnc21)c1cnc2c(c1)C[C@@]1(C2)C(=O)Nc2ncccc21 (single isomer, unassigned; isomer b) [9 isomer B] | – | 5.96
7 | O=C(NC1COC(c2ccccc2)Cc2cccnc21)c1cnc2c(c1)C[C@@]1(C2)C(=O)Nc2ncccc21 (single isomer, unassigned; isomer c) [9 isomer C] | – | 5.96
8 | N[C@@H]1c2cccnc2[C@H](NC(=O)c2cnc3c(c2)C[C@@]2(C3)C(=O)Nc3ncccc32)CC[C@H]1c1cccc(F)c1F [Example 1, (6S)—N-[(5S,6S,9R)-5-Amino-6-(2,3-difluorophenyl)-6,7,8,9-tetrahydro-5H-cyclohepta[b]pyridin-9-yl]-2′-oxo-1′,2′,5,7-tetrahydrospiro[cyclopenta[b]pyridine-6,3′-pyrrolo[2,3-b]pyridine]-3-carboxamide] | 9.03 | –
9 | N[C@@H]1c2cccnc2[C@@H](NC(=O)c2cnc3c(c2)C[C@@]2(C3)C(=O)Nc3ncccc32)CC[C@H]1c1cccc(F)c1F [Example 2, (6S)—N-[(5S,6S,9S)-5-Amino-6-(2,3-difluorophenyl)-6,7,8,9-tetrahydro-5H-cyclohepta[b]pyridin-9-yl]-2′-oxo-1′,2′,5,7-tetrahydrospiro[cyclopenta[b]pyridine-6,3′-pyrrolo[2,3-b]pyridine]-3-carboxamide] | 6.54 | –
10 | N[C@H]1c2cccnc2[C@H](NC(=O)c2cnc3c(c2)C[C@@]2(C3)C(=O)Nc3ncccc32)CC[C@H]1c1cccc(F)c1F [Example 3, (6S)—N-[(5R,6S,9R)-5-Amino-6-(2,3-difluorophenyl)-6,7,8,9-tetrahydro-5H-cyclohepta[b]pyridin-9-yl]-2′-oxo-1′,2′,5,7-tetrahydrospiro[cyclopenta[b]pyridine-6,3′-pyrrolo[2,3-b]pyridine]-3-carboxamide] | 8.20 | –
11 | N[C@H]1c2cccnc2[C@@H](NC(=O)c2cnc3c(c2)C[C@@]2(C3)C(=O)Nc3ncccc32)CC[C@H]1c1cccc(F)c1F [Example 4, (6S)—N-[(5R,6S,9S)-5-Amino-6-(2,3-difluorophenyl)-6,7,8,9-tetrahydro-5H-cyclohepta[b]pyridin-9-yl]-2′-oxo-1′,2′,5,7-tetrahydrospiro[cyclopenta[b]pyridine-6,3′-pyrrolo[2,3-b]pyridine]-3-carboxamide] | 7.19 | –
12 | O=C(N[C@H]1CC[C@H](c2cccc(F)c2F)Cc2cccnc21)c1cnc2c(c1)C[C@@]1(C2)C(=O)Nc2ncccc21 [Example 7A, (S)—N-((6S,9S)-6-(2,3-difluorophenyl)-6,7,8,9-tetrahydro-5H-cyclohepta[b]pyridin-9-yl)-2′-oxo-1′,2′,5,7-tetrahydrospiro[cyclopenta[b]pyridine-6,3′-pyrrolo[2,3-b]pyridine]-3-carboxamide] | 6.42 | –
13 | O=C(N[C@@H]1CC[C@@H](c2cccc(F)c2F)Cc2cccnc21)c1cnc2c(c1)C[C@@]1(C2)C(=O)Nc2ncccc21 [Example 7B, (S)—N-((6R,9R)-6-(2,3-difluorophenyl)-6,7,8,9-tetrahydro-5H-cyclohepta[b]pyridin-9-yl)-2′-oxo-1′,2′,5,7-tetrahydrospiro[cyclopenta[b]pyridine-6,3′-pyrrolo[2,3-b]pyridine]-3-carboxamide] | 8.35 | –
